Test results: ChEMBL document CHEMBL1201862, “PubChem BioAssay data set” (2004)
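How tested: cells in 96-well plates exposed to compound for 48 hours at five concentrations. At the GI50, growth is halved.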 The source made the active and inactive calls. No stated cut-off is given here; in the data, active = GI50 up to about 1.1 µM and inactive = higher.

What was measured:
Test in all cases: inhibition of tumour cell growth, NCI panel, 48 h
RPMI-8226 = system: RPMI-8226
IGROV-1 = system: IGROV-1
DU-145 = system: DU-145
NCI-H226 = system: NCI-H226
HCC 2998 = system: HCC 2998
A498 = system: A498
NCI-H460 = system: NCI-H460
HOP-92 = system: HOP-92
SNB-19 = system: SNB-19
HCT-15 = system: HCT-15
M14 = system: M14
CAKI-1 = system: CAKI-1
BT-549 = system: BT-549
NCI-H23 = system: NCI-H23
OVCAR-4 = system: OVCAR-4
HCT-116 = system: HCT-116
SF-268 = system: SF-268
ACHN = system: ACHN
SF-539 = system: SF-539
Malme-3M = system: Malme-3M

| Structure (SMILES) | GI50 (RPMI-8226) | GI50 (IGROV-1) | GI50 (DU-145) | GI50 (NCI-H226) | GI50 (HCC 2998) | GI50 (A498) | GI50 (NCI-H460) | GI50 (HOP-92) | GI50 (SNB-19) | GI50 (HCT-15) [µM] | GI50 (M14) | GI50 (CAKI-1) | GI50 (BT-549) | GI50 (NCI-H23) | GI50 (OVCAR-4) | GI50 (HCT-116) | GI50 (SF-268) | GI50 (ACHN) | GI50 (SF-539) | GI50 (Malme-3M) |
| --- | --- | --- | --- | --- | --- | --- | --- | --- | --- | --- | --- | --- | --- | --- | --- | --- | --- | --- | --- | --- |
| Cc1cc2c(c(/C=N/c3ccc([N+](=O)[O-])cc3)c1)OC1(C=C2)Oc2ccccc2C(=O)N1C (stereo not drawn) | 19.3 µM (inactive) | 18.8 µM (inactive) | 22.3 µM (inactive) | 16 µM (inactive) | 19.8 µM (inactive) | 16.8 µM (inactive) | 21.8 µM (inactive) | 24.1 µM (inactive) | 34.4 µM (inactive) | 17.9 | 23.3 µM (inactive) | 13.8 µM (inactive) | 19.6 µM (inactive) | 18.2 µM (inactive) | 22.2 µM (inactive) | 14.6 µM (inactive) | 18.7 µM (inactive) | 14.8 µM (inactive) | – | – |
| O=C(CNC(c1ccccc1)(c1ccccc1)c1ccccc1)NC1CCCCC1NC(=O)CNC(c1ccccc1)(c1ccccc1)c1ccccc1 (stereo not drawn) | > 100 µM (inactive) | > 100 µM (inactive) | > 100 µM (inactive) | – | > 100 µM (inactive) | > 100 µM (inactive) | > 100 µM (inactive) | 12 µM (inactive) | > 100 µM (inactive) | > 100 | – | > 100 µM (inactive) | > 100 µM (inactive) | > 100 µM (inactive) | > 100 µM (inactive) | > 100 µM (inactive) | 24.2 µM (inactive) | > 100 µM (inactive) | > 100 µM (inactive) | > 100 µM (inactive) |
| CC1(C)CC(=O)C2=C(C1)NC1=C(C(=O)CC(C)(C)C1)C2c1ccc([N+](=O)[O-])cc1 | > 100 µM (inactive) | > 100 µM (inactive) | > 100 µM (inactive) | > 100 µM (inactive) | > 100 µM (inactive) | > 100 µM (inactive) | > 100 µM (inactive) | > 100 µM (inactive) | > 100 µM (inactive) | > 100 | > 100 µM (inactive) | > 100 µM (inactive) | > 100 µM (inactive) | > 100 µM (inactive) | > 100 µM (inactive) | > 100 µM (inactive) | > 100 µM (inactive) | > 100 µM (inactive) | > 100 µM (inactive) | – |
| CN(C)CCNC(=O)c1cc(-c2nccn2C)nc2ccccc12 | > 100 µM (inactive) | > 100 µM (inactive) | > 100 µM (inactive) | > 100 µM (inactive) | > 100 µM (inactive) | > 100 µM (inactive) | 34.4 µM (inactive) | 64.7 µM (inactive) | > 100 µM (inactive) | 66.1 | > 100 µM (inactive) | > 100 µM (inactive) | 81.1 µM (inactive) | > 100 µM (inactive) | – | > 100 µM (inactive) | > 100 µM (inactive) | 58.3 µM (inactive) | > 100 µM (inactive) | > 100 µM (inactive) |
| CCCNC(C#N)c1ccc(OCCCCCCCCCCOc2ccc(C(C#N)NCCC)cc2)cc1 (stereo not drawn) | – | 54.6 µM (inactive) | 49 µM (inactive) | 30.8 µM (inactive) | > 100 µM (inactive) | 23.1 µM (inactive) | 50.5 µM (inactive) | 32.4 µM (inactive) | 33.2 µM (inactive) | 47.3 | 40.4 µM (inactive) | – | 75 µM (inactive) | 51.3 µM (inactive) | 34.5 µM (inactive) | 31.9 µM (inactive) | 61.8 µM (inactive) | 83.9 µM (inactive) | 55.2 µM (inactive) | 64 µM (inactive) |
| Cc1cc(NC[C@H](O)[C@H](O)[C@H](O)CO)c(Sc2cc(=O)[nH]c(=O)[nH]2)cc1C | > 62.5 µM (inactive) | > 62.5 µM (inactive) | > 62.5 µM (inactive) | > 62.5 µM (inactive) | > 62.5 µM (inactive) | > 62.5 µM (inactive) | > 62.5 µM (inactive) | > 62.5 µM (inactive) | > 62.5 µM (inactive) | > 62.5 | > 62.5 µM (inactive) | > 62.5 µM (inactive) | > 62.5 µM (inactive) | > 62.5 µM (inactive) | > 62.5 µM (inactive) | > 62.5 µM (inactive) | > 62.5 µM (inactive) | > 62.5 µM (inactive) | – | > 62.5 µM (inactive) |
| CC1(CCOCc2ccccc2)NC(=O)NC1=O (stereo not drawn) | – | > 100 µM (inactive) | > 100 µM (inactive) | > 100 µM (inactive) | > 100 µM (inactive) | > 100 µM (inactive) | > 100 µM (inactive) | > 100 µM (inactive) | > 100 µM (inactive) | > 100 | > 100 µM (inactive) | > 100 µM (inactive) | > 100 µM (inactive) | > 100 µM (inactive) | > 100 µM (inactive) | > 100 µM (inactive) | > 100 µM (inactive) | > 100 µM (inactive) | – | > 100 µM (inactive) |
| CCS(=O)(=O)CCn1cnc2c1c(=O)n(C)c(=O)n2C | – | > 100 µM (inactive) | > 100 µM (inactive) | > 100 µM (inactive) | > 100 µM (inactive) | > 100 µM (inactive) | > 100 µM (inactive) | > 100 µM (inactive) | > 100 µM (inactive) | > 100 | > 100 µM (inactive) | > 100 µM (inactive) | > 100 µM (inactive) | > 100 µM (inactive) | > 100 µM (inactive) | > 100 µM (inactive) | > 100 µM (inactive) | > 100 µM (inactive) | > 100 µM (inactive) | – |
| COc1cc(/C=N/N=C2NCCCN2)ccc1O | > 100 µM (inactive) | > 100 µM (inactive) | > 100 µM (inactive) | > 100 µM (inactive) | > 100 µM (inactive) | > 100 µM (inactive) | 82.8 µM (inactive) | > 100 µM (inactive) | > 100 µM (inactive) | > 100 | > 100 µM (inactive) | – | > 100 µM (inactive) | > 100 µM (inactive) | > 100 µM (inactive) | > 100 µM (inactive) | > 100 µM (inactive) | > 100 µM (inactive) | > 100 µM (inactive) | 95.7 µM (inactive) |
| CN(C)Cc1cc(C(=O)/C=C/c2ccccc2Cl)cc(CN(C)C)c1O | 13.8 µM (inactive) | 13.6 µM (inactive) | 12.3 µM (inactive) | 24.3 µM (inactive) | 20.2 µM (inactive) | 12.9 µM (inactive) | 4.6 µM (inactive) | 18.1 µM (inactive) | 13.9 µM (inactive) | 14.7 | 11.2 µM (inactive) | 3.56 µM (inactive) | 8.51 µM (inactive) | 14.5 µM (inactive) | – | 5.42 µM (inactive) | 15.9 µM (inactive) | 4.45 µM (inactive) | 15.5 µM (inactive) | 11 µM (inactive) |
| C=C1C(=O)OC2/C=C(\C)CC/C=C(/C)CC(OC(=O)/C(=C/CO)CO)C12 (stereo not drawn) | 23.2 µM (inactive) | 33.5 µM (inactive) | 17.5 µM (inactive) | – | 23 µM (inactive) | > 10 µM (inactive) | 64.3 µM (inactive) | 26.7 µM (inactive) | 65 µM (inactive) | 17.3 | 18.1 µM (inactive) | 18.9 µM (inactive) | 14.3 µM (inactive) | 18.2 µM (inactive) | 33.6 µM (inactive) | > 10 µM (inactive) | 26.7 µM (inactive) | 17.8 µM (inactive) | 24.5 µM (inactive) | 20.1 µM (inactive) |
| CCOC(=O)C(Cc1ccc(N(CCCl)CCCl)cc1)NC(=O)C(Cc1ccccc1)NC=O (stereo not drawn) | 0.187 µM (active) | 0.0492 µM (active) | 0.139 µM (active) | – | 0.0186 µM (active) | 0.273 µM (active) | 0.261 µM (active) | 0.126 µM (active) | 0.421 µM (active) | 0.29 | 0.102 µM (active) | 0.0385 µM (active) | 0.437 µM (active) | 0.00906 µM (active) | 0.0208 µM (active) | 0.286 µM (active) | 0.0968 µM (active) | 0.00959 µM (active) | 0.139 µM (active) | 0.109 µM (active) |
| CC12Nc3ccccc3N1C(=O)c1ccccc12 (stereo not drawn) | > 100 µM (inactive) | > 100 µM (inactive) | 88.1 µM (inactive) | > 100 µM (inactive) | > 100 µM (inactive) | > 100 µM (inactive) | > 100 µM (inactive) | > 100 µM (inactive) | > 100 µM (inactive) | > 100 | > 100 µM (inactive) | > 100 µM (inactive) | > 100 µM (inactive) | > 100 µM (inactive) | > 100 µM (inactive) | > 100 µM (inactive) | > 100 µM (inactive) | > 100 µM (inactive) | > 100 µM (inactive) | – |
| CCCCCCNC(=O)CCC(NC(=O)c1ccc(N(C)Cc2cnc3nc(N)nc(N)c3n2)cc1)C(=O)NCCCCCC (stereo not drawn) | 37.8 µM (inactive) | 16.2 µM (inactive) | 89.3 µM (inactive) | > 100 µM (inactive) | > 100 µM (inactive) | > 100 µM (inactive) | 47.2 µM (inactive) | 98.2 µM (inactive) | > 100 µM (inactive) | > 100 | 73.8 µM (inactive) | > 100 µM (inactive) | > 100 µM (inactive) | > 100 µM (inactive) | > 100 µM (inactive) | > 100 µM (inactive) | > 100 µM (inactive) | > 100 µM (inactive) | – | – |
| CC[C@]1(c2ccc3c(c2)OCO3)C=[N+]([O-])O[C@H](OC2CCCC2(c2ccccc2)c2ccccc2)[C@@H]1OC(C)=O (stereo partly drawn) | – | 1.94 µM (inactive) | 2.1 µM (inactive) | 4.3 µM (inactive) | 1.85 µM (inactive) | 1.27 µM (inactive) | 2.24 µM (inactive) | 2.09 µM (inactive) | 3.22 µM (inactive) | 2.26 | 2.28 µM (inactive) | 3.42 µM (inactive) | 2.53 µM (inactive) | 2.48 µM (inactive) | 2.62 µM (inactive) | 1.78 µM (inactive) | 2.4 µM (inactive) | 2.81 µM (inactive) | 4.22 µM (inactive) | – |
